{"source": "patent EP1781294B1", "about": "“COMPOSITION FOR IMPROVED BIOAVAILABILITY AND ENHANCED BRAIN DELIVERY OF 5,5-DIPHENYL BARBITURIC ACID” (priority 2004, dated 2006)", "key": {"[1]": {"assay": "Pharmacokinetics of DPB after oral DPB or NaDPB and intravenous NaDPB", "assay_type": "in vivo, Sprague-Dawley rats", "settings": "150 mg/kg; for AUC at 24 h: rat, in vivo, analyte DPB, read-out: AU0-24; for AUC0-t for DPB greater than after oral administration of DPB / Cmax for DPB greater than after oral administration of DPB: versus oral DPB", "experimental": "(§1) In accordance with the present invention, pharmacokinetic parameters were calculated using standard non-compartmental methods, as implemented in WinNonlin™ 4.0.1. […] The mean, SD and CV (%) were used to calculate the AUC0-t (µg.h/mL), Cmax (µg/ml) (the maximum observed concentration), Tmax (hours) (the time to reach that peak concentration) and Kel (the elimination rate constant) for each animal and each analyte.\n(§2) AUC0-t was calculated using the linear trapezoidal rule, which employs an approximate integration formula. The area of each trapezoid was calculated, and the sum of all the areas of all the trapezoids yielded an estimate of the true area under the curve. (See, Gibaldi et al. Pharmacokinetics. 2nd Ed. Marcel Dekker, Inc., 1982; Yeh et al., A comparison of numerical integrating algorithms by trapezoidal, lagrange, and spline approximations. J. Pharmacokinet Biopharm. 6: 79 (1978), the disclosure of which is herein incorporated by reference.) Cmax and Tmax were then determined for each concentration vs. time profile. Elimination rate constant (Kel) was calculated using regression analyses on the natural log (In) of plasma concentration values (y) versus time (x).\n(§3) We examined the delivery of DPB to the vascular compartment by administrating directly DPB and compared it with the sodium salt of DPB. This study compared the pharmacokinetics of DPB after oral administration of DPB (150 mg/kg) and sodium salt of DPB (150 mg/kg) in rats. Fifty-four rats were administered DPB and sodium salt of DPB by a single oral gavage (n=54). Blood samples were obtained (approximately 0.5 mL each) were collected following each treatment from animal via the jugular vein. Blood samplings from groups of 3 rats/sex/time point were collected at various times after dosing, in order to provide the complete time-points of pre-dose, 0, 0.5, 1, 2, 3, 4, 6, 12, 18, 24, 36 and 48 hours after dosing. Each blood sample was collected into a tube containing lithium heparin and the samples were spun in a refrigerated centrifuge. The resultant plasma was stored at -80°C prior to analysis. DPB was quantified in plasma using HPLC (LLOQ=0.25 µg/mL).\nWe calculated AUC0-t for DPB at various times (24, 36 and 48 hours) after oral administrations of DPB and sodium salt of DPB. Table 5: AUCs at various times (24,36 and 48 hours) after Oral Administration of DPB and NaDPB in Beagle Dogs (75 mg/kg, n=28)"}, "[2]": {"assay": "Brain concentration of DPB after oral DPB or NaDPB and intravenous NaDPB", "assay_type": "in vivo, Sprague-Dawley rats", "settings": "150 mg/kg", "experimental": "as §3\nIn this study, we measured the brain concentration of DPB. Brains were collected as soon as possible after euthanasia from each rat. They were stored in a freezer at -80°C prior to determination of DPB brain tissue concentrations. Table 6 summarizes the brain concentrations of DPB after oral administration of DPB and sodium salt of DPB in Sprague-Dawley rats."}, "[3]": {"system": "maximal electroshock seizure (MES)", "settings": "cited from earlier work"}, "[4]": {"settings": "aqueous solution at pH 7; cited from earlier work"}, "[5]": {"assay": "Pharmacokinetics of MMMDPB and DPB after oral MMMDPB or NaMMMDPB and intravenous NaMMMDPB", "assay_type": "in vivo, Beagle dogs", "experimental": "as §1, §2\nBlood samples were obtained pre-dose and 0.25, 0.5, 1, 2, 3, 4, 6, 9, 12, 15, 18, and 24 hours after dosing. Venous blood (~1 mL) were drawn and collected in lithium heparin (anticoagulant). Blood samples were spun in a refrigerated centrifuge and plasma were stored at -80°C prior to analysis. […] Calibration curves were obtained using a weighted (1/C^2) least squares linear regression analysis of peak area ratio (analyte/internal standard) versus the nominal concentration of the calibration standards. Concentrations were obtained by interpolation from the run defined calibration curve. Regressions and figures were generated by PE Sciex Analyst Version 1.2 software.\nPlasma samples were thawed and subjected to solid phase extraction with 2 mL acetonitrile prior to HPLC method with Tandem Mass Spectrometry Detection. Chromatographic conditions were performed as followed: […]"}, "[6]": {"assay": "Pharmacokinetics of DPB after oral DPB or NaDPB and intravenous NaDPB", "assay_type": "in vivo, Beagle dogs", "settings": "75 mg/kg, versus oral DPB free acid", "experimental": "as §1, §2\nWe examined the delivery of DPB to the vascular compartment by administrating directly DPB and compared it with the sodium salt of DPB in dogs. […] DPB was quantified in plasma using HPLC (LLOQ=0.25 µg/mL). […]"}, "[7]": {"settings": "dog, in vivo, iv, 15 mg/kg, IV infusion, analyte DPB"}}, "note": "Read-outs that look alike come from different tables or passages of the source."}
{"smiles": "O=C1NC(=O)C(c2ccccc2)(c2ccccc2)C(=O)N1", "note": "[DPB, 5,5-diphenyl barbituric acid]", "values": [{"measurement": "AUC at 24 h", "setting": "[1]; po, Oral, female", "value": 1210, "unit": "µg·h/mL"}, {"measurement": "AUC at 24 h", "setting": "[1]; po, Oral, male", "value": 623, "unit": "µg·h/mL"}, {"measurement": "Mean Brain Concentrations of DPB", "setting": "[2]; female, 24 hr", "value": 7.04, "unit": "µg/g"}, {"measurement": "Mean Brain Concentrations of DPB", "setting": "[2]; female, 36 hr", "value": 6.84, "unit": "µg/g"}, {"measurement": "Mean Brain Concentrations of DPB", "setting": "[2]; female, 48 hr", "value": 5.24, "unit": "µg/g"}, {"measurement": "Mean Brain Concentrations of DPB", "setting": "[2]; male, 24 hr", "value": 3.09, "unit": "µg/g"}, {"measurement": "Mean Brain Concentrations of DPB", "setting": "[2]; male, 36 hr", "value": 3.36, "unit": "µg/g"}, {"measurement": "Mean Brain Concentrations of DPB", "setting": "[2]; male, 48 hr", "value": "BQL"}, {"measurement": "protection", "setting": "[3]; brain concentrations in excess of 10 µg/ml", "value": "≥ 50", "unit": "%"}, {"measurement": "protection", "setting": "[3]; brain concentrations of DPB less than 1 µg/ml", "value": "≤ 20", "unit": "%"}, {"measurement": "Water solubility, less soluble as compared to phenobarbital", "setting": "[4]", "value": "1/100"}]}
{"smiles": "COCN1C(=O)NC(=O)C(c2ccccc2)(c2ccccc2)C1=O", "note": "[MMMDPB, monomethoxymethyl-5,5-diphenyl barbituric acid]", "values": [{"measurement": "AUC(0-t)", "setting": "[5]; Oral, 30 mg/kg, analyte DPB", "value": 193.18, "unit": "µg·h/mL"}, {"measurement": "Tmax", "setting": "[5]; dog, in vivo, Oral, 30 mg/kg, analyte DPB", "value": 9.39, "unit": "h"}, {"measurement": "Cmax", "setting": "[5]; dog, in vivo, Oral, 30 mg/kg, analyte DPB, plasma, n=8", "value": 13900, "unit": "ng/mL"}, {"measurement": "AUC(0-t)", "setting": "[5]; dog, in vivo, Oral, 30 mg/kg, analyte DPB, read-out: AUC0-t", "value": 193, "unit": "µg·h/mL"}]}
{"smiles": "O=C1NC(=O)C(c2ccccc2)(c2ccccc2)C(=O)N1.[Na]", "note": "[NaDPB, sodium 5,5-diphenyl barbiturate]", "values": [{"measurement": "AUC0-t for DPB greater than after oral administration of DPB", "setting": "[6]", "value": "~ 4 fold"}, {"measurement": "Cmax for DPB greater than after oral administration of DPB", "setting": "[6]", "value": "~ 3 fold"}, {"measurement": "AUC0-t for DPB greater than after oral administration of DPB", "setting": "[1]; Oral, female", "value": "~ 2 fold"}, {"measurement": "Cmax for DPB greater than after oral administration of DPB", "setting": "[1]; Oral, female", "value": "~ 1.5 fold"}, {"measurement": "AUC0-t for DPB greater than after oral administration of DPB", "setting": "[1]; Oral, male", "value": "~ 4.5 fold"}, {"measurement": "Cmax for DPB greater than after oral administration of DPB", "setting": "[1]; Oral, male", "value": "~ 2.5 fold"}, {"measurement": "AUC at 24 h", "setting": "[1]; iv, IV infusion, female", "value": 3400, "unit": "µg·h/mL"}, {"measurement": "AUC at 24 h", "setting": "[1]; iv, IV infusion, male", "value": 3160, "unit": "µg·h/mL"}, {"measurement": "AUC at 24 h", "setting": "[1]; po, Oral, female", "value": 1990, "unit": "µg·h/mL"}, {"measurement": "AUC at 24 h", "setting": "[1]; po, Oral, male", "value": 1710, "unit": "µg·h/mL"}]}
{"smiles": "COCN1C(=O)NC(=O)C(c2ccccc2)(c2ccccc2)C1=O", "note": "[NaMMMDPB, sodium monomethoxymethyl-5,5-diphenyt barbiturate]", "values": [{"measurement": "AUC(0-t)", "setting": "[5]; Oral, 30 mg/kg, analyte DPB", "value": 135.10, "unit": "µg·h/mL"}, {"measurement": "AUC(0-t)", "setting": "[5]; dog, in vivo, iv, 15 mg/kg, IV infusion, 15 mg/kg, analyte DPB, read-out: AUC0-t", "value": 59.4, "unit": "µg·h/mL"}, {"measurement": "Cmax", "setting": "[5]; [7]", "value": 8600, "unit": "ng/mL"}, {"measurement": "Tmax", "setting": "[5]; [7]", "value": 3.13, "unit": "h"}, {"measurement": "AUC(0-t)", "setting": "[5]; dog, in vivo, po, 30 mg/kg, Oral, 30 mg/kg, analyte DPB, read-out: AUC0-t", "value": 135, "unit": "µg·h/mL"}, {"measurement": "AUC(0-t)", "setting": "[5]; dog, in vivo, po, 30 mg/kg, Oral, 30 mg/kg, analyte MMMDPB, read-out: AUC0-t", "value": 29.4, "unit": "µg·h/mL"}, {"measurement": "Tmax", "setting": "[5]; dog, in vivo, po, 30 mg/kg, analyte DPB", "value": 7.28, "unit": "h"}, {"measurement": "Cmax", "setting": "[5]; dog, in vivo, po, 30 mg/kg, analyte DPB, plasma, n=8", "value": 11600, "unit": "ng/mL"}, {"measurement": "bioavailability", "setting": "[5]; dog, in vivo, Oral, 30 mg/kg, analyte DPB, read-out: F (absolute bioavailability)", "value": 315, "unit": "%"}]}
